Columns and labels:
Escherichia coli [1] = test: Activity of Escherichia coli beta-lactamase VIM-1 by spectrophotometry
Escherichia coli [2] = test: Ratio of Kcat to Km for Escherichia coli beta-lactamase VIM-1 by spectrophotometry

Km (Escherichia coli [1])	kcat (Escherichia coli [1])	kcat/Km (Escherichia coli [2])	Compound
150 µM	550 s⁻¹	3.7 µM⁻¹ s⁻¹	CO/N=C(\C(=O)N[C@@H]1C(=O)N2C(C(=O)[O-])=C(C[N+]3(C)CCCC3)CS[C@H]12)c1csc(N)n1
450 µM	43 s⁻¹	0.096 µM⁻¹ s⁻¹	CO[C@@]1(NC(=O)C(C(=O)O)c2ccc(O)cc2)C(=O)N2C(C(=O)O)=C(CSc3nnnn3C)CO[C@@H]21 (stereo not given in full)
130 µM	26 s⁻¹	0.2 µM⁻¹ s⁻¹	CO[C@@]1(NC(=O)Cc2cccs2)C(=O)N2C(C(=O)O)=C(COC(N)=O)CS[C@@H]21
1.5 µM	0.2 s⁻¹	0.13 µM⁻¹ s⁻¹	C[C@@H](O)[C@H]1C(=O)N2C(C(=O)O)=C(SCCNC=N)C[C@H]12
50 µM	13 s⁻¹	0.26 µM⁻¹ s⁻¹	C[C@@H](O)[C@H]1C(=O)N2C(C(=O)O)=C(S[C@@H]3CN[C@H](C(=O)N(C)C)C3)[C@H](C)[C@H]12

Source: ChEMBL document CHEMBL1275486, “Kinetic characterization of VIM-7, a divergent member of the VIM metallo-beta-lactamase family” (Antimicrob Agents Chemother, 2008)
